From patent US10766862B2, “Crystal form and salt form of and preparation method for tyrosine kinase inhibitor” (GUANGDONG RAYNOVENT BIOTECH CO., LTD., priority 2016, dated 2020)
In brackets after ≈: the same amount, converted by molar mass.

Columns and labels:
[1] = Test of solubility of crystal form A and its salts in four medias (HPLC, 24 hr); conditions: for Solubility (ug/mL)_24 hr: 24 hr stirring; for pH (24 hr): supernatant
Method: (§1) Preparation of Control Solution (Crystal Form a as Control Sample)
(§2) Crystal form A was accurately weighed and added into a sample vial. 10 mL of acetonitrile was added, and subject to ultrasonic treatment for 5 min. The mixture was cooled to room temperature, and mixed homogeneously. Two aliquots were formulated in parallel, and labelled as STD-1 and STD-2, respectively.
Preparation of Linear Solution
(§3) The control solution STD-1 was gradually diluted 1×, 5×, 10×, 100×, and 1000×, and labelled as the linear solutions L1, L2, L3, L4, L5.
(§4) Test of Solubility of Crystal Form a and its Salts
(§5) The crystal form A and its salts were tested for their solubility in medias at 4 different pH values. About 10 mg of free base (10.8 mg of hydrochloride, 12.1 mg of methane sulfonate) was added into a glass vial. Four aliquots were weighed, 5.0 mL of individual media (water, SGF, FaSSIF, FeSSIF*) was added to each aliquot, respectively. The mixture was mixed homogeneously to for a suspension. A magnet was placed into the suspension, which was placed on a magnetic stirred for stirring. After 24 hours of stirred, a sample was taken and centrifugalized. The supernatant was detected by HPLC for its concentration and pH value.

[2] = Test of solid stability of crystal forms F, K and L; format: physicochemical
Method: Test of Solid Stability of Crystal Form F (Hydrochloride), Crystal Form K (Methane Sulfonate) and Crystal Form L (Methane Sulfonate) […] About 5 mg of each crystal form was accurately weighed and placed in a glass vial. Two aliquots were taken as the sample for test under each condition and at each time point. One aliquot was taken as the sample for XRPD test under each condition and at each time point. The vials containing sample were sealed with aluminum foil, and the foil was pierced to form some holes thereon. Then, the samples were placed in constant temperature & humidity chambers under the conditions of 60° C./92.5% RH and 40° C./75% RH. [table] 2. Analysis of Sample of Solid Stability At the tested time point, the sample was taken out, capped, and stood to room temperature. […] Diluent: an aqueous solution of methanol-0.04% TFA (90:10, v:v) Mobile phase A: 0.04% aqueous solution of TFA Mobile phase B: Acetonitrile as mobile phase B. Crystal form F (hydrochloride): To each sample was added 18 mL of the diluent (to the sample at Day 0 was added 20 mL of the diluent). The mixture was subject to ultrasonic treatment for 2 min, and mixed homogeneously for use as the sample solution. Crystal forms K and L (methane sulfonate): To each sample was added 15 mL of the diluent. The mixture was subject to ultrasonic treatment for 2 min, and mixed homogeneously for use as the sample solution. NOTE: All the sample solutions were injected for analysis immediately after formulation. Once the HPLC system was stable, the sample was injected for analysis.

physchem = conditions: FeSSIF, pH 4.89, fessif, thermodynamic from solid
Method: as §1, §2
Preparation of Linear Solution
as §3, §4, §5

A549 Transplant Model = assay: Analysis of tumor growth inhibition (TGI), A549 transplant model; format: in vivo; conditions: mice, QD
Method: The development and growth of tumors are evaluated by the relation between the tumor volume and time. The long axis (L) and the short axis (W) are measured with caliper twice per week. The tumor volume (TV) is calculated in accordance with the formula of (L×W^2)/2. TGI is calculated from the difference between the median tumor volume of mice of the solvent group and the median tumor volume of mice of the administration group, and expressed as a percentage relative to the median tumor volume of the solvent group.
It is calculated from the equation of: % TGH(Median Tumor Volume (Control Group) Median Tumor Volume (Administration Group))/Median Tumor Volume (Control Group))×100%
The initial statistical analysis is carried out by repeated variance analyses. Next, multiple comparisons are made by Scheffe psot hoc test method. A solvent (aqueous solution containing 0.5% of methylcellulose and 0.2% Tween) alone is used as negative control.

[3] = 40° C./75% RH, Day 5, sum of impurities > 0.02%
[4] = 60° C., Day 5, sum of impurities > 0.02%
[5] = 92.5% RH, Day 5, sum of impurities > 0.02%
[6] = -20° C., Day 0 (control per se), Table 17
[7] = -20° C., Day 0, sum of impurities > 0.02%
[8] = FaSSIF (pH 6.48), listed as Hydrochloride Crystal form F
[9] = Water (pH 6.33), listed as Hydrochloride Crystal form F
[10] = FaSSIF (pH 6.48), listed as Methane sulfonate Crystal form K
[11] = Water (pH 6.33), listed as Methane sulfonate Crystal form K

For `COc1cc2nccc(Oc3ccc(NC(=S)NC4CC4)c(Cl)c3F)c2cc1C(N)=O` [Crystal form A], the “Solubility (ug/mL)_24 hr” value ([1]; FaSSIF (pH 6.48)) was 2.62 µg/mL, the “Solubility (ug/mL)_24 hr” value ([1]; SGF (pH 1.72), methane sulfonate loaded to 10 mg/mL of free base) was 692.77 µg/mL and the “Solubility (ug/mL)_24 hr” value ([1]; Water (pH 6.33)) was 2.38 µg/mL. The “pH (24 hr)” value ([1]; FaSSIF (pH 6.48)) was 6.18, the “pH (24 hr)” value ([1]; FeSSIF (pH 4.89)) was 4.98 and the “pH (24 hr)” value ([1]; SGF (pH 1.72)) was 1.97. For the same molecule, the “pH (24 hr)” value ([1]; Water (pH 6.33)) was 7.16.
With `COc1cc2nccc(Oc3ccc(NC(=S)NC4CC4)c(Cl)c3F)c2cc1C(N)=O` [Crystal form F] the “Content (%)” value ([2]; 40° C./75% RH, Day 5, Table 17) was 100.5%, the “Total impurity (%)” value [2, 3] was 4.94% and the “Content (%)” value ([2]; 60° C., Day 5, Table 17) was 99.6%. For the same molecule, the “Total impurity (%)” value [2, 4] was 4.86%, the “Content (%)” value ([2]; 92.5% RH, Day 5, Table 17) was 100.3% and the “Total impurity (%)” value [2, 5] was 4.52%. For the same molecule, the “Content (%)” value [2, 6] was 100.0%, the “Total impurity (%)” value [2, 7] was 4.66% and the solubility at 24 h (physchem) was 70.1 µg/mL (≈ 152 µM). For the same molecule, the “Solubility (ug/mL)_24 hr” value [1, 8] was 64.32 µg/mL, the “Solubility (ug/mL)_24 hr” value ([1]; SGF (pH 1.72), methane sulfonate loaded to 10 mg/mL of free base, listed as Hydrochloride Crystal form F) was 1217.07 µg/mL and the “Solubility (ug/mL)_24 hr” value [1, 9] was 319.05 µg/mL. For the same molecule, the “pH (24 hr)” value [1, 8] was 3.73, the “pH (24 hr)” value ([1]; FeSSIF (pH 4.89), listed as Hydrochloride Crystal form F) was 4.89 and the “pH (24 hr)” value ([1]; SGF (pH 1.72), listed as Hydrochloride Crystal form F) was 1.80. The “pH (24 hr)” value [1, 9] was 2.56.
With `COc1cc2nccc(Oc3ccc(NC(=S)NC4CC4)c(Cl)c3F)c2cc1C(N)=O` [Crystal form K] the “Content (%)” value ([2]; 40° C./75% RH, Day 5, Table 17) was 98.5%, the “Total impurity (%)” value [2, 3] was 5.32% and the “Content (%)” value ([2]; 40° C./75% RH, Day 10, Table 17) was 101.7%. The “Total impurity (%)” value ([2]; 40° C./75% RH, Day 10, sum of impurities > 0.02%) was 5.62%, the “Content (%)” value ([2]; 60° C., Day 5, Table 17) was 94.6% and the “Total impurity (%)” value [2, 4] was 9.33%. The “Content (%)” value ([2]; 60° C., Day 10, Table 17) was 93.9%, the “Total impurity (%)” value ([2]; 60° C., Day 10, sum of impurities > 0.02%) was 8.94% and the “Content (%)” value ([2]; 92.5% RH, Day 5, Table 17) was 99.3%. The “Total impurity (%)” value [2, 5] was 5.16%, the “Content (%)” value ([2]; 92.5% RH, Day 10, Table 17) was 99.5% and the “Total impurity (%)” value ([2]; 92.5% RH, Day 10, sum of impurities > 0.02%) was 4.87%. For the same molecule, the “Content (%)” value [2, 6] was 100.0%, the “Total impurity (%)” value [2, 7] was 5.20% and the “Solubility (ug/mL)_24 hr” value [1, 10] was 38.04 µg/mL. The “Solubility (ug/mL)_24 hr” value ([1]; SGF (pH 1.72), methane sulfonate loaded to 10 mg/mL of free base, listed as Methane sulfonate Crystal form K) was 6601.59 µg/mL, the “Solubility (ug/mL)_24 hr” value [1, 11] was 329.78 µg/mL and the “pH (24 hr)” value [1, 10] was 3.92. The “pH (24 hr)” value ([1]; FeSSIF (pH 4.89), listed as Methane sulfonate Crystal form K) was 4.88, the “pH (24 hr)” value ([1]; SGF (pH 1.72), listed as Methane sulfonate Crystal form K) was 1.76 and the “pH (24 hr)” value [1, 11] was 2.53.
For `COc1cc2nccc(Oc3ccc(NC(=S)NC4CC4)c(Cl)c3F)c2cc1C(N)=O` [Crystal form L], the “Content (%)” value ([2]; 40° C./75% RH, Day 30, Table 18) was 99.4%, the “Total impurity (%)” value ([2]; 40° C./75% RH, Day 30, sum of impurities > 0.05%) was 0.9% and the “Content (%)” value ([2]; 40° C./75% RH, Day 60, Table 18) was 99.9%. For the same molecule, the “Total impurity (%)” value ([2]; 40° C./75% RH, Day 60, sum of impurities > 0.05%) was 0.9%, the “Content (%)” value ([2]; 40° C./75% RH, Day 90, Table 18) was 97.5% and the “Total impurity (%)” value ([2]; 40° C./75% RH, Day 90, sum of impurities > 0.05%) was 1.0%. The “Content (%)” value ([2]; 60° C., Day 5, Table 18) was 97.8%, the “Total impurity (%)” value ([2]; 60° C., Day 5, sum of impurities > 0.05%) was 0.8% and the “Content (%)” value ([2]; 60° C., Day 10, Table 18) was 97.4%. For the same molecule, the “Total impurity (%)” value ([2]; 60° C., Day 10, sum of impurities > 0.05%) was 0.8%, the “Content (%)” value ([2]; 60° C., Day 30, Table 18) was 97.1% and the “Total impurity (%)” value ([2]; 60° C., Day 30, sum of impurities > 0.05%) was 0.8%. For the same molecule, the “Content (%)” value ([2]; 92.5% RH, Day 5, Table 18) was 98.0%, the “Total impurity (%)” value ([2]; 92.5% RH, Day 5, sum of impurities > 0.05%) was 0.8% and the “Content (%)” value ([2]; 92.5% RH, Day 10, Table 18) was 97.6%. For the same molecule, the “Total impurity (%)” value ([2]; 92.5% RH, Day 10, sum of impurities > 0.05%) was 0.8%, the “Content (%)” value ([2]; 92.5% RH, Day 30, Table 18) was 100.2% and the “Total impurity (%)” value ([2]; 92.5% RH, Day 30, sum of impurities > 0.05%) was 0.8%. For the same molecule, the “Content (%)” value ([2]; -20° C., Day 0, Table 18) was 97.5%, the “Total impurity (%)” value ([2]; -20° C., Day 0, sum of impurities > 0.05%) was 0.8% and the “TGI % (Last Administration)” value (A549 Transplant Model; 50 mg/kg) was 82%. For the same molecule, the “TGI % (Last Administration)” value (A549 Transplant Model; 100 mg/kg) was 90% and the “TGI % (Last Administration)” value (A549 Transplant Model; 200 mg/kg) was 91%.
For `COc1cc2nccc(Oc3ccc(NC(=S)NC4CC4)c(Cl)c3F)c2cc1C(N)=O` [methane sulfonate], the “Solubility, conclusion in words” value ([1]; SGF, listed as methanesulfonate salt) was “good solubility”.
